The values below come from ChEMBL document CHEMBL5523729, “Development of Degraders of Cyclin-Dependent Kinases 4 and 6 Based on Rational Drug Design” (J Med Chem, 2024).

The target of assay [1] is T1, Protein cereblon/Cyclin-dependent kinase 4 (Homo sapiens, UniProt P11802+Q96SW2). Kind of assay: PROTAC activity at CDK4/CRBN in human Jurkat cells assessed as protein degradation by Western blot analysis. In kind it is cell-based. On the technique in general: Immunoblotting shows a protein as a band on a membrane.
Target sequence in this assay (P11802 whole entry): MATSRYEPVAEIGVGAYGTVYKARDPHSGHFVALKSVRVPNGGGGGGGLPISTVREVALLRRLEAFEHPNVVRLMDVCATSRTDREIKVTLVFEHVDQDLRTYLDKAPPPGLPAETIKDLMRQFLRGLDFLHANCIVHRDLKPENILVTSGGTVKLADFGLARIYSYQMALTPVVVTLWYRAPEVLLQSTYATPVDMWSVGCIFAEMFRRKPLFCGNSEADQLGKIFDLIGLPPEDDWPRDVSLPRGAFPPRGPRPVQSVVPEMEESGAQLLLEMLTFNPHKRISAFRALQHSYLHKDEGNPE
Target sequence in this assay (Q96SW2 whole entry): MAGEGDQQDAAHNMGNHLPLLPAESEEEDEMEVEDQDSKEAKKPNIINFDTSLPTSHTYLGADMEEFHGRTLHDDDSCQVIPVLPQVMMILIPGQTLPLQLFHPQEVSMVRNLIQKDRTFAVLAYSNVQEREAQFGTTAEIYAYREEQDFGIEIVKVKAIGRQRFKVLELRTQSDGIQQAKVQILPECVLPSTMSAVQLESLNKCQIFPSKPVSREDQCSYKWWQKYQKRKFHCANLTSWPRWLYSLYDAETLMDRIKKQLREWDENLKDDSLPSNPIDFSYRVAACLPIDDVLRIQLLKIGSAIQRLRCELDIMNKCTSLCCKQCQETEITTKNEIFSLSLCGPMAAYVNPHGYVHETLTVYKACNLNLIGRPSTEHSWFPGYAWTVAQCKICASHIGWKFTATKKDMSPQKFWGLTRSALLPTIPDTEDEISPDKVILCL
Assay [2] concerns the target T1, Protein cereblon/Cyclin-dependent kinase 4. Kind of assay: PROTAC activity at CDK4/CRBN in human Jurkat cells assessed as maximal protein degradation by Western blot analysis relative to control. In kind it is cell-based.
Target sequence in this assay (P11802 2-303 limits assumed): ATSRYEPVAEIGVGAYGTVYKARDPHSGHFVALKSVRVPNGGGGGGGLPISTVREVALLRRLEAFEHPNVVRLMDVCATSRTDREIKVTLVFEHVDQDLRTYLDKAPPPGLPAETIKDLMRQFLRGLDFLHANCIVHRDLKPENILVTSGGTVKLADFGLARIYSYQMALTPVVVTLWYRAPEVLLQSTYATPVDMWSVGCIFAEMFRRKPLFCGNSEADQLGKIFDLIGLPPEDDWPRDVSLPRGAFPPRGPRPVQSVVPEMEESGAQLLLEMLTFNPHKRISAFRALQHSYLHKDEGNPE
Target sequence in this assay (Q96SW2 whole entry partner): as the sequence (Q96SW2 whole entry) above
The target in assay [3] is T2, Protein cereblon/Cyclin-dependent kinase 6 (Homo sapiens, UniProt Q00534+Q96SW2). Kind of assay: PROTAC activity at CDK6/CRBN in human Jurkat cells assessed as protein degradation by Western blot analysis. In kind it is cell-based.
Target sequence in this assay (Q00534 whole entry): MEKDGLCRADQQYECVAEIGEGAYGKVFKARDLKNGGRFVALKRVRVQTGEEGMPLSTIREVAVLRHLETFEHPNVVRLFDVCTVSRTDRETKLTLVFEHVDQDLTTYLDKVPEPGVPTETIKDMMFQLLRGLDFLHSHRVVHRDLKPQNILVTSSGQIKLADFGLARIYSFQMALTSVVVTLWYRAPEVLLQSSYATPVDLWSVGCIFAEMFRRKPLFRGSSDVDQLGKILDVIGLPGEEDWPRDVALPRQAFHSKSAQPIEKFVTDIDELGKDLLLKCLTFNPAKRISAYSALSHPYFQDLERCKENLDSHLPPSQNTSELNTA
Target sequence in this assay (Q96SW2 whole entry): as the sequence (Q96SW2 whole entry) above
The target in assay [4] is T2, Protein cereblon/Cyclin-dependent kinase 6. Kind of assay: PROTAC activity at CDK6/CRBN in human Jurkat cells assessed as maximal protein degradation by Western blot analysis relative to control. The class given is cell-based.
Target sequence in this assay (Q00534 whole entry, looked up): as the sequence (Q00534 whole entry) above
Target sequence in this assay (Q96SW2 whole entry, looked up): as the sequence (Q96SW2 whole entry) above
Assay [5] addresses Cyclin-dependent kinase 6 (Homo sapiens, UniProt Q00534). Kind of assay: Inhibition of CDK6 (unknown origin).
The target of assay [6] is Cyclin-dependent kinase 4 (Homo sapiens, UniProt P11802). Kind of assay: Inhibition of CDK4 (unknown origin).
Assay [7] relates to Jurkat. Nature of the assay: Anti-proliferative activity against human Jurkat cells assessed as cell growth inhibition measured after 72 hrs by CCK8 assay. In kind it is functional, cell-based.
For assay [8], the target named is T2, Protein cereblon/Cyclin-dependent kinase 6. Nature of the assay: PROTAC activity at CDK6/CRBN in human Jurkat cells assessed as protein degradation at 1 uM after 12 hrs by Western blot analysis. The class given is cell-based.
Target sequence in this assay (Q00534 whole entry, looked up): as the sequence (Q00534 whole entry) above
Target sequence in this assay (Q96SW2 whole entry, looked up): as the sequence (Q96SW2 whole entry) above
The target of assay [9] is T1, Protein cereblon/Cyclin-dependent kinase 4. Kind of assay: PROTAC activity at CDK4/CRBN in human Jurkat cells assessed as protein degradation after 3 to 24 hrs by Western blot analysis. In kind it is cell-based. The note with it: dose 1-1000 nM, time 3-24 hrs.
Target sequence in this assay (P11802 2-303 limits assumed): as the sequence (P11802 2-303 limits assumed) above
Target sequence in this assay (Q96SW2 whole entry partner): as the sequence (Q96SW2 whole entry) above
Assay [10] addresses Protein cereblon/Cyclin-dependent kinase 8 (Homo sapiens) (UniProt P49336+Q96SW2). Nature of the assay: PROTAC activity at CDK8/CRBN in human Jurkat cells assessed as protein degradation at 1 uM measured after 24 hrs by Western blot analysis. The class given is cell-based.
Assay [11] addresses T2, Protein cereblon/Cyclin-dependent kinase 6. Kind of assay: PROTAC activity at CDK6/CRBN in human Jurkat cells assessed as protein degradation after 3 to 24 hrs by Western blot analysis. In kind it is cell-based. To be noted: dose 1-1000 nM, time 3-24 hrs.
Target sequence in this assay (Q00534 whole entry, looked up): as the sequence (Q00534 whole entry) above
Target sequence in this assay (Q96SW2 whole entry, looked up): as the sequence (Q96SW2 whole entry) above
The target is the same in assay [12]. Kind of assay: PROTAC activity at CDK6/CRBN in human Jurkat cells assessed as protein degradation at 1 to 1000 nM by Western blot analysis. In kind it is cell-based. The note with it: dose 1-1000 nM, time 3-24 hrs, TDE = time-dependent effect.
Target sequence in this assay (Q00534 whole entry, looked up): as the sequence (Q00534 whole entry) above
Target sequence in this assay (Q96SW2 whole entry, looked up): as the sequence (Q96SW2 whole entry) above
Assay [13] has as its target Protein cereblon/Cyclin-dependent kinase 5 (Homo sapiens) (UniProt Q00535+Q96SW2). Kind of assay: PROTAC activity at CDK5/CRBN in human Jurkat cells assessed as protein degradation at 1 uM measured after 24 hrs by Western blot analysis. In kind it is cell-based.
Assay [14] has as its system Jurkat. Nature of the assay: Anti-tumor activity against human Jurkat cells assessed as increase in cleaved caspase-3 level by Western blot analysis. In kind it is functional, cell-based. To be noted: dose 1-1000 nM.
Assay [15] concerns the target T1, Protein cereblon/Cyclin-dependent kinase 4. Nature of the assay: PROTAC activity at CDK4/CRBN in human Jurkat cells assessed as protein degradation at 1 uM measured after 24 hrs by Western blot analysis. In kind it is cell-based.
Target sequence in this assay (P11802 2-303 limits assumed): as the sequence (P11802 2-303 limits assumed) above
Target sequence in this assay (Q96SW2 whole entry partner): as the sequence (Q96SW2 whole entry) above
The target of assay [16] is Protein cereblon/Cyclin-dependent kinase 7 (Homo sapiens) (UniProt P50613+Q96SW2). Kind of assay: PROTAC activity at CDK7/CRBN in human Jurkat cells assessed as protein degradation at 1 uM measured after 24 hrs by Western blot analysis. In kind it is cell-based.
For assay [17], the target named is Protein cereblon/Cyclin-dependent kinase 2 (Homo sapiens) (UniProt P24941+Q96SW2). Nature of the assay: PROTAC activity at CDK2/CRBN in human Jurkat cells assessed as protein degradation at 1 uM measured after 24 hrs by Western blot analysis. The class given is cell-based.
Assay [18] deals with Protein cereblon/Cyclin-dependent kinase 1 (Homo sapiens) (UniProt P06493+Q96SW2). Kind of assay: PROTAC activity at CDK1/CRBN in human Jurkat cells assessed as protein degradation at 1 uM measured after 24 hrs by Western blot analysis. In kind it is cell-based.
The target in assay [19] is T1, Protein cereblon/Cyclin-dependent kinase 4. Kind of assay: PROTAC activity at CDK4/CRBN in human Jurkat cells assessed as protein degradation at 1 to 1000 nM by Western blot analysis. The note with it: dose 1-1000 nM, time 3-24 hrs, TDE = time-dependent effect. The class given is cell-based.
Target sequence in this assay (P11802 2-303 limits assumed): as the sequence (P11802 2-303 limits assumed) above
Target sequence in this assay (Q96SW2 whole entry partner): as the sequence (Q96SW2 whole entry) above
In assay [20] the test system is Jurkat. Kind of assay: Anti-tumor activity against human Jurkat cells assessed as increase in cleaved PARP level by Western blot analysis. In kind it is functional, cell-based. The note with it: dose 1-1000 nM.
Assay [21] deals with Jurkat. Nature of the assay: Anti-tumor activity against human Jurkat cells assessed as suppression of p-RB (Ser780) at 1 uM by Western blot analysis. The class given is functional, cell-based.
The test system of assay [22] is Jurkat. Nature of the assay: Induction of apoptosis in human Jurkat cells assessed as apoptotic cells measured after 24 hrs by Annexin V-FITC/PI staining based analysis. In kind it is functional, cell-based. To be noted: dose 0.1-1 µM.
The target in assay [23] is T1, Protein cereblon/Cyclin-dependent kinase 4. Nature of the assay: PROTAC activity at CDK4/CRBN in human Jurkat cells assessed as protein degradation at 1 uM after 12 hrs by Western blot analysis. The class given is cell-based.
Target sequence in this assay (P11802 2-303 limits assumed): as the sequence (P11802 2-303 limits assumed) above
Target sequence in this assay (Q96SW2 whole entry partner): as the sequence (Q96SW2 whole entry) above
Assay [24] has as its system Jurkat. Nature of the assay: Cell cycle arrest in human Jurkat cells assessed as accumulation of cells at G1 phase measured after 24 hrs by flow cytometry. In kind it is functional, cell-based. To be noted: dose 0.1-1 µM.

Calls of active or inactive are those of the source. The calls are words filed in the database; no cut-off is given here.

Sequence of Protein cereblon/Cyclin-dependent kinase 5 (Homo sapiens) (Q00535 whole entry, looked up): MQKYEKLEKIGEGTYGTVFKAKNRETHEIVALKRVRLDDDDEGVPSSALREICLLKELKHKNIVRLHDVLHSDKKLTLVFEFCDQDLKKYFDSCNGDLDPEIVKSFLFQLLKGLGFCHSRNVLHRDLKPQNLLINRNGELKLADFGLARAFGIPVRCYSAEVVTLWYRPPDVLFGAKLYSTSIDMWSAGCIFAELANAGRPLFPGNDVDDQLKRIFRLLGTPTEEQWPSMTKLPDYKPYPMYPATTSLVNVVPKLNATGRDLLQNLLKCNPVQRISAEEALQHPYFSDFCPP
Sequence of Protein cereblon/Cyclin-dependent kinase 5 (Homo sapiens) (Q96SW2 whole entry, looked up): as the sequence (Q96SW2 whole entry) above
Sequence of Cyclin-dependent kinase 6 (Q00534 whole entry): as the sequence (Q00534 whole entry) above

Consider `O=C1CCC(N2C(=O)c3ccc(N4CCN(C(=O)CN5CCN(c6ccc(Nc7ncc8ncc(=O)n(C9CCCC9)c8n7)cc6)CC5)CC4)cc3C2=O)C(=O)N1` (configuration not stated), for which the DC50 (commonly the concentration at which degradation of the target reaches its halfway point) was found to be 9.8 nM in assay [1] and 3.9 nM in assay [3]. In addition, the Emax (usually the greatest response seen or fitted, relative to the assay's reference) in [2] came out at 75%; in assay [4], 86%.
For the compound `O=c1cnc2cnc(Nc3ccc(N4CCNCC4)cc3)nc2n1C1CCCC1`, the values for the IC50 in assay [5], in assay [6] and in assay [7] were 88 nM, 7.7 nM and 1470 nM, respectively.
As for `O=C1CCC(N2C(=O)c3cccc(NC(=O)CCCCCn4cc(CN5CCN(c6ccc(Nc7ncc8ncc(=O)n(C9CCCC9)c8n7)cc6)CC5)nn4)c3C2=O)C(=O)N1` (configuration not stated), the figures for the DC50 in assay [1] and in [3] were greater than 1000 nM and 16.3 nM, respectively. Further, the Emax in assay [2] was 42%; in assay [4] it was 95%.
Regarding `O=C(CCCCN1CCN(c2ccc(Nc3ncc4ncc(=O)n(C5CCCC5)c4n3)cc2)CC1)NCCNc1cccc2c1C(=O)N(C1CCC(=O)NC1=O)C2=O` (configuration not stated), the Activity in [8] was 100%; in assay [9], “Dose-Dependent Effect”; in assay [11] it was “Dose-Dependent Effect”; in assay [12], “Tde”; in [14], “Dose-Dependent Effect”; in [19], “Tde”. The Activity entry in [20] was “Dose-Dependent Effect”; in assay [22], “Dose-Dependent Effect”; in assay [23], 100%; in assay [24] it was “Dose-Dependent Effect”. The result in assay [10], in assay [13], in assay [15], in assay [16], in assay [17] and in assay [18] was inactive. Moreover, the values for the DC50 in assay [1] and in [3] were 10.5 nM and 2.5 nM, respectively. The Emax came out at 100% in assay [2] and 96% in assay [4]. For the same compound, the result in [21] was Active. In addition, the IC50 – broadly, the point on the concentration scale where inhibition reaches its midpoint – in [7] was 183 nM.
As for `O=C(CN1CCN(c2ccc(Nc3ncc4ncc(=O)n(C5CCCC5)c4n3)cc2)CC1)NCCCCNc1cccc2c1C(=O)N(C1CCC(=O)NC1=O)C2=O` (configuration not stated), the DC50 in assay [1] and in [3] was greater than 1000 nM throughout. In addition, the Emax amounted to 14% in assay [2] and 40% in [4].
Regarding `O=C1CCC(N2C(=O)c3cccc(NC(=O)CCCCCN4CCN(c5ccc(Nc6ncc7ncc(=O)n(C8CCCC8)c7n6)cc5)CC4)c3C2=O)C(=O)N1` (configuration not stated), the DC50 is 14.9 nM in [1] and 58 nM in assay [3]. The Emax in assay [2] is 95%; in assay [4], 85%.
Consider `O=C1CCC(N2C(=O)c3cccc(NCCOCCN4CCN(c5ccc(Nc6ncc7ncc(=O)n(C8CCCC8)c7n6)cc5)CC4)c3C2=O)C(=O)N1` (configuration not stated), for which the DC50 in assay [1] was determined as 162 nM; in [3], 93 nM. Also, the Emax in [2] was 60%; in [4], 91%.
As to `CC(=O)c1c(C)c2cnc(Nc3ccc(N4CCNCC4)cn3)nc2n(C2CCCC2)c1=O` [PALBOCICLIB], in [7], the IC50 was determined as 1500 nM.
As for `O=C1CCC(N2C(=O)c3cccc(NC(=O)CCCCCCN4CCN(c5ccc(Nc6ncc7ncc(=O)n(C8CCCC8)c7n6)cc5)CC4)c3C2=O)C(=O)N1` (configuration not stated), the DC50 was greater than 1000 nM in assay [1] and 6.6 nM in assay [3]. Moreover, the Emax in assay [2] is 41%; in assay [4], 95%.
As to `O=C1CCC(N2C(=O)c3ccc(N4CCN(CC5CCN(C(=O)CN6CCN(c7ccc(Nc8ncc9ncc(=O)n(C%10CCCC%10)c9n8)cc7)CC6)CC5)CC4)cc3C2=O)C(=O)N1` (configuration not stated), the DC50 in assay [1] came to 138 nM; in [3], 2.3 nM. Besides, the Emax in assay [2] is 68%; in [4] it was 90%.
With `O=C1CCC(N2C(=O)c3cccc(NC(=O)CCCCCCC(=O)N4CCN(c5ccc(Nc6ncc7ncc(=O)n(C8CCCC8)c7n6)cc5)CC4)c3C2=O)C(=O)N1` (configuration not stated), the DC50 in [1] came out at 434 nM; in [3], 43.3 nM. In addition, the Emax worked out at 60% in assay [2] and 92% in assay [4].
As to `O=C1CCC(N2C(=O)c3cccc(NCCOCCOCCN4CCN(c5ccc(Nc6ncc7ncc(=O)n(C8CCCC8)c7n6)cc5)CC4)c3C2=O)C(=O)N1` (configuration not stated), the DC50 in assay [1] is 557 nM; in [3] it was 5.3 nM. Moreover, the Emax in assay [2] worked out at 53%; in assay [4] it was 94%.
